Experiments:
Type in all cases: cell-based
[1] = test system: Staphylococcus aureus ATCC 25923; test: MIC against S. aureus, microbroth dilution in MH broth, without or with 5% horse serum; details: MIC class; S. aureus ATCC 25923
Method: (§1) Testing was conducted to determine the in vitro antimicrobial activity of a series of compounds synthesised by Alchemia Pty Ltd. The antimicrobial activity of each compound was determined at a single concentration (128 μg/mL) in Mueller Hinton (MH) broth against the ATCC type strain of Staphylococcus aureus. […] Compounds showing activity at concentrations up to 32-64 μg/mL in the presence/absence of serum were then tested for MIC activity against a standard set of 5 microorganisms comprising of ATCC type strains of MRSA, Enterococcus faecalis, Enterococcus faecium, VRE and Escherichia coli. CLSI (formerly NCCLS) microbroth dilution technique was used.
(§2) Each compound is initially dissolved in 100 μL of DMSO. Each solution is then diluted further in 0.9 mL of sterile MH broth to give a total volume of 1 mL (1000 μg/mL) This stock solution is then further diluted in MH broth to give a test solution with final concentration of 128 μg/mL using the following formula: 0.5 ml stock in 3.4 ml MH broth
(§3) Each test organism was subcultured from the −70° C. deep freezer onto horse blood agar. The plates were streaked to obtain isolated colonies and incubated at 35° C. in non-CO2 incubator for 24 hours. A second subculture was carried out onto horse blood agar. For each test organism, 1-2 colonies were selected from an 18-24 hour culture and inoculated into 2 ml sterile MH broth. The turbidity was adjusted to 0.5 McFarland standard.
(§4) A 1:10 dilution in MH broth (200 μL in 2 ml MH) of the 0.5 McFarland control was prepared. 5 μL of this diluted solution was used to inoculate the trays.
100 μL of sterile MH broth was added in columns 2-12. 200 μL of test solution was added in column 1. 100 μL was transferred in column 2 giving a ½ dilution. 100 μL from column 2 was then transferred to column 3 (¼ dilution). This dilution was carried on until column 12. A second tray containing the same test solution was inoculated in a similar manner using sterile MH broth with 5% heat inactivated horse serum. 5 μL of organism solution was then added to each well. The plates were then sealed and incubated at 35° C. in a non-CO2 incubator for 18-24 hours. The plates were examined for growth after the incubation time.
(§5) If the test organism is sensitive to the compound in the broth the growth will be inhibited. Similarly, if the organism grows on the antibiotic containing medium then it is resistant to this particular antibiotic.

[2] = test system: E. Faecium 51299 VanB; test: MIC against vancomycin-resistant enterococcus 51299 (VanB), microbroth dilution; details: MIC class; ATCC 51299 VanB
Method: as §1, §2, §3, §4
(§6) The trays were prepared in a similar way as mentioned above and incubated at 35° C. in a non-CO2 incubator for 18-24 hours. The plates were examined for growth after the incubation time.
(§7) After 18-24 hour incubation 5 μL from each well was then inoculated onto horse blood agar and incubated for 18-24 hours at 35° C. in a non-CO2 incubator.
as §5

[3] = test system: Enterococcus faecium ATCC 35667; test: MIC against E. faecium, microbroth dilution; details: MIC class
Method: as §1, §2, §3, §4, §6, §7, §5

[4] = test system: Enterococcus faecalis ATCC 29212; test: MIC against E. faecalis, microbroth dilution; details: MIC class
Method: as §1, §2, §3, §4, §6, §7, §5

[5] = test system: Staphylococcus aureus (MRSA) ATCC 33591; test: MIC against MRSA, microbroth dilution; details: MIC class
Method: as §1, §2, §3, §4, §6, §7, §5

SMILES | S. Aureus 25923 activity [1] | E. Faecium 51299 VanB activity [2] | E. Faecium 35667 activity [3] | E. Fecalis 29212 activity [4] | S. Aureus 33591 MRSA activity [5]
NC(Cc1ccc(-c2ccccc2)cc1)C(=O)NC1C(CO)OCC(n2c(O)nc3cc(C(F)(F)F)cc(Cl)c32)C1O (stereo not shown) [Compound 161] | + (“+”: MIC (μg/mL): 64 ≧ MIC > 16) | − (“−”: MIC (μg/mL): MIC > 64) | − (“−”: MIC (μg/mL): MIC > 64) | + (“+”: MIC (μg/mL): 64 ≧ MIC > 16) | + (“+”: MIC (μg/mL): 64 ≧ MIC > 16)
NC(C(=O)Nc1nc2cc(C(F)(F)F)ccc2n1C1C(CO)OCC(NC(=O)Nc2ccc(Cl)c(C(F)(F)F)c2)C1O)c1ccc(-c2ccccc2)cc1 (stereo not shown) [Compound 236] | − (“−”: MIC (μg/mL): MIC > 64) | + (“+”: MIC (μg/mL): 64 ≧ MIC > 16) | ++ (“++”: MIC (μg/mL): MIC ≦ 16) | ++ (“++”: MIC (μg/mL): MIC ≦ 16) | ++ (“++”: MIC (μg/mL): MIC ≦ 16)
NC(C(=O)Nc1nc2cc(C(F)(F)F)ccc2n1C1C(CO)OCC(NS(=O)(=O)c2ccc(C(F)(F)F)cc2)C1O)c1ccc(-c2ccccc2)cc1 (stereo not shown) [Compound 240] | ++ (“++”: MIC (μg/mL): MIC ≦ 16) | − (“−”: MIC (μg/mL): MIC > 64) | − (“−”: MIC (μg/mL): MIC > 64) | ++ (“++”: MIC (μg/mL): MIC ≦ 16) | ++ (“++”: MIC (μg/mL): MIC ≦ 16)
CCCCCCCCCCCCC(N)C(=O)NC1C(CO)OCC(n2c(S)nc3cc(C(F)(F)F)ccc32)C1O (stereo not shown) [Compound 182] | ++ (“++”: MIC (μg/mL): MIC ≦ 16) | ++ (“++”: MIC (μg/mL): MIC ≦ 16) | ++ (“++”: MIC (μg/mL): MIC ≦ 16) | ++ (“++”: MIC (μg/mL): MIC ≦ 16) | ++ (“++”: MIC (μg/mL): MIC ≦ 16)
O=C(NC1C(CO)OCC(n2c(O)nc3cc(C(F)(F)F)cc(Cl)c32)C1O)c1ccc(-c2ccccc2)cc1 (stereo not shown) [Compound 153] | + (“+”: MIC (μg/mL): 64 ≧ MIC > 16) | − (“−”: MIC (μg/mL): MIC > 64) | − (“−”: MIC (μg/mL): MIC > 64) | + (“+”: MIC (μg/mL): 64 ≧ MIC > 16) | + (“+”: MIC (μg/mL): 64 ≧ MIC > 16)
CCCCCC(C)CCC(=O)NC1C(CO)OCC(n2c(N)nc3cc(C(F)(F)F)cc(Cl)c32)C1O (stereo not shown) [Compound 179] | + (“+”: MIC (μg/mL): 64 ≧ MIC > 16) | − (“−”: MIC (μg/mL): MIC > 64) | − (“−”: MIC (μg/mL): MIC > 64) | − (“−”: MIC (μg/mL): MIC > 64) | − (“−”: MIC (μg/mL): MIC > 64)
CCCCCCCCCCCCC(N)C(=O)NC1C(CO)OCC(n2c(N)nc3cc(C(F)(F)F)ccc32)C1O (stereo not shown) [Compound 183] | + (“+”: MIC (μg/mL): 64 ≧ MIC > 16) | − (“−”: MIC (μg/mL): MIC > 64) | ++ (“++”: MIC (μg/mL): MIC ≦ 16) | − (“−”: MIC (μg/mL): MIC > 64) | − (“−”: MIC (μg/mL): MIC > 64)
O=C(Nc1ccc(Cl)c(C(F)(F)F)c1)NC1COC(CO)C(n2c(Nc3ccc(-c4ccccc4)cc3)nc3cc(C(F)(F)F)cc(Cl)c32)C1O (stereo not shown) [Compound 254] | ++ (“++”: MIC (μg/mL): MIC ≦ 16) | − (“−”: MIC (μg/mL): MIC > 64) | − (“−”: MIC (μg/mL): MIC > 64) | − (“−”: MIC (μg/mL): MIC > 64) | ++ (“++”: MIC (μg/mL): MIC ≦ 16)

Source: patent publication US7989422B2, “Antibacterial agents” (Alchemia Limited, priority 2005, dated 2011)
